Data from patent US8669291B2, “Phenyl substituted cycloalkylamines as monoamine reuptake inhibitors” (Sunovion Pharmaceuticals Inc., priority 2007, dated 2014).

Test system: 6-OHDA lesioned rat
Test: 6-OHDA-lesioned rat Parkinson's disease model, paw placing test
Type: in vivo
Protocol: The effects of compound 4 alone and in combination with L-DOPA were evaluated in the rodent 6-OHDA-lesioned rat Parkinson's disease model. The method, which detects antiparkinson activity (reversal of motor deficits and akinesia), follows that described by Henry et al. (Exp Neurol, 151(2): 334-42, 1998).
Animal Preparation: Prior to surgery, rats were administered pargyline (5 mg/kg, ip) and desipramine (25 mg/kg ip) to optimize subsequent 6-OHDA availability and increase specificity for toxicity to dopaminergic neurons. Rats were then anesthetized with isoflurane and placed in a stereotaxic frame. After exposure of Bregma, a burr hole was drilled in the skull above the right median forebrain bundle at co-ordinates: 2.8 mm posterior and 2 mm lateral to Bregma (according to the atlas of Paxinos and Watson, 1986). […]
Paw Placing Test: The paw placing test assesses correct placing of each forepaw in response to a sensory stimulus. […] The test was quantified as the percentage of successful placing responses of the limb contralateral to the side of the 6-OHDA lesion. […]
Drug Administration: For the monotherapy experiment, the effects of 5 different treatments were assessed: 1) vehicle (sterile water, PO), 2) 3 mg/kg compound 4 (PO), 3) 10 mg/kg compound 4 (PO), 4) 30 mg/kg compound 4 and 5) 6.5 mg/kg (IP) of the positive reference substance, L-DOPA. […]

With `CNC[C@@H]1CCCC[C@@]1(O)c1ccc(Cl)c(Cl)c1` [Compound 4] the paw placement performance (10 mg/kg, PO in combination with low dose L-DOPA, FIG. 6) was “significantly increased paw placement performance” and the “performance in the paw placement task” value (alone, 3-30 mg/kg, PO) was “little or no improvement in performance”.
